Test results: patent US8257700B2, “Proteomic analysis of active multiple sclerosis lesions” (The Board of Trustees of the Leland Stanford Junior …, priority 2008, dated 2012)

Legend:
[1] = system: rheumatoid arthritis; conditions: cited from earlier work
[2] = system: MS relapses and active EAE; conditions: during MS relapses and active EAE; cited from earlier work
[3] = system: EAE mice; experiment: EAE induced with PLP139-151 in SJL/J mice, daily clinical score; assay type: in vivo, mouse (SJL/J); conditions: for clinical status (mean clinical score), time of amelioration: recombinant human aPC variants 0.46 mg/kg daily i.v. from maximal paralysis until day 30, vs PBS
Protocol: EAE induction, treatment with hirudin, aPC (WT and mutants), proliferation assays, cytokine analysis and quantitative histopathology. Mice were maintained in the Research Animal Facility at Stanford University. EAE was induced in 7-8 week old SJL/J female mice by subcutaneous immunization with 100 μg PLP139-151 in emulsion. For hirudin or aPC treatment, EAE mice (n=10/group) were treated with daily intravenous injection of hirudin (10 mg/kg) or mouse recombinant aPC-WT (0.2 mg/kg) at the peak of disease and compared with PBS treated group. Mice were assessed daily for clinical signs of EAE and scored according to: 0, no clinical disease; 1, tail weakness; 2, hindlimb weakness; 3, complete hindlimb paralysis; 4, hindlimb paralysis and some forelimb weakness; 5, moribund or dead.
Recombinant human aPC-WT and mutants (aPC-L8W and aPC-K193E) were prepared as described by Grinnell et al (2007) Critical Care Medicine (suppl). These aPC variants have the following properties on aPTT and PAR-1 signaling function: aPC-WT: aPTT (relative activity)=1, PAR-1 (relative activity)=1, aPC-L8W: aPTT=1, PAR-1=0.02 and aPC-K193E: aPTT=0.03, PAR-1=1. EAE mice (n=7/group) were treated with daily intravenous injection of recombinant human aPC-WT, aPC-L8W, aPC-K193E (0.46 mg/kg) or PBS (control group) at the time of maximal paralysis and assessed daily until day 30.

[4] = system: aPTT; conditions: cited from earlier work; for aPTT (relative activity): relative to aPC-WT
[5] = biological target: T1, PAR-1 (Homo sapiens, UniProt P25116); conditions: cited from earlier work
T1 sequence (P25116 22-425): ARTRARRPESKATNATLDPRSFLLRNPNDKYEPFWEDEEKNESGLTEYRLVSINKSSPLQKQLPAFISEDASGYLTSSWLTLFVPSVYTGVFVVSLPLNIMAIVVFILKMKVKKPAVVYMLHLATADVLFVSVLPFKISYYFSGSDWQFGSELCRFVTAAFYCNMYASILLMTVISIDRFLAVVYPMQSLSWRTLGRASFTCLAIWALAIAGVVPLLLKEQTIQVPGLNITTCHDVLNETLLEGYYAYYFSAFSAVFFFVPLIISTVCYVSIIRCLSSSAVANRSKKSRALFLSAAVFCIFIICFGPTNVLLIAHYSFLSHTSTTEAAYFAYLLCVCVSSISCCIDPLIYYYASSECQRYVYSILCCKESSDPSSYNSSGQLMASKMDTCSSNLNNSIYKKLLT

[6] = system: NF-κB signalling (IκB-α); experiment: Western blot of IκB-α in T cells (NF-κB activation); assay type: cell-based, mouse (SJL/J); conditions: T cells treated with murine aPC, cell activation assay
Protocol: Western blot analysis. For NF-κB activation, total cell lysate from purified T cells treated with aPC were analyzed by SDS-PAGE, transferred to PVDF membrane, probed with antibodies against IκB-α, and β-actin and the signal was visualized by enhanced chemiluminescence.

[7] = system: primary astrocytes; experiment: Primary astrocyte activation with LPS, cytokine ELISA; assay type: cell-based, mouse (SJL/J); conditions: 30 nM recombinant murine aPC pre-treatment, LPS 100 ng/ml
Protocol: Astrocyte culture. Astrocytes were cultured from brain of one-day-old SJL/J pups as described previously. Briefly, the cerebral cortices from pups were minced, cells were disrupted by passing through a filter and cultured in complete DMEM. Purified astrocytes (50-80% confluent) were treated with 30 nM recombinant murine aPC for 15 minutes and activated with 100 ng/ml LPS (Sigma). Cells were harvested at 4, 24, 48 and 72-hours, and supernatant were analyzed by ELISA for cytokine production.

[8] = system: primary peritoneal macrophages; experiment: Peritoneal macrophage activation with LPS, cytokine ELISA; assay type: cell-based, mouse (SJL/J); conditions: 30 nM recombinant murine aPC pre-treatment, LPS 100 ng/ml
Protocol: Primary peritoneal macrophages were isolated from naïve 8-9 weeks old SJL/J mice following intraperitoneal injection of thioglycollate (BD Diagnostic Systems) and cultured in complete medium (DMEM supplemented with 10% fetal bovine serum, 1 mM sodium pyruvate, […] and 0.1 mg/ml streptomycin). Cells (1×10^6 cells/ml) were treated with 30 nM recombinant murine aPC for 15 minutes, then activated with LPS 100 ng/ml (Sigma), harvested at different time points (15 min-72 hours), and cytokine levels were measured.

[9] = system: splenocytes and lymph node cells; experiment: Cytokine production (ELISA) of splenocytes and lymph node cells from treated EAE mice; assay type: cell-based, mouse (SJL/J)
Protocol: (§1) In vitro immune cell proliferation and cytokine analysis were performed as previously described (Ousman et al. (2007) Nature 448, 474-9). Briefly, splenocytes and lymph node cells harvested from EAE experiments were cultured in flat-bottomed, 96-well plates at a concentration of 0.5×10^6 cells/well in stimulation media (RPMI 1640 supplemented with 2 mM L-glutamine, 1 mM sodium pyruvate, 0.1 mM non-essential amino acids, 100 U/ml^2 Penicillin, 0.1 mg/ml^2 streptomycin, 0.5 μM 2-mercaptoethanol and 10% fetal calf serum) and activated with PLP139-151 peptide (5-20 μg/ml). To determine proliferation rates, cultures were pulsed with (^3H)-Thymidine (1 μCi per well) following 72-hour culture and harvested 18 hours later onto filter paper. The counts per minute (cpm) of incorporated ^3H-Thymidine were read using a beta counter. Cytokine levels (IL-2, IL-4, IL-6, IL-10, IL-12p40, IL-17, IFN-γ, TNF) were measured from the supernatant of cultured cells using anti-mouse OPTEIA ELISA kits (BD Pharmigen).

[10] = system: splenocytes and lymph node cells; experiment: In vitro proliferation (3H-thymidine) of splenocytes and lymph node cells from treated EAE mice, activated with PLP peptide; assay type: cell-based, mouse (SJL/J)
Protocol: as §1

[11] = system: purified T cells; experiment: Purified T cell activation with CD3/CD28, cytokine ELISA; assay type: cell-based, mouse (SJL/J); conditions: 30 nM recombinant murine aPC pre-treatment, CD3/CD28 5 μg/ml
Protocol: In vitro Immune cell activation assays and cytokine analysis. T lymphocytes were isolated from pooled splenocytes and lymph node cells from 8 week-old naïve SJL/J mice by negative selection (Pan T cell isolation kit, Miltenyi Biotech). Cells were pre-treated with 30 nM recombinant murine aPC for 15 mins at 37° C. followed by activation with CD3/CD28 (5 μg/ml) coated on 12 well plates. Cells were cultured at 5×10^6 cells/ml concentration in stimulation media. Culture plates were harvested at different time points (15 min-96 hours) and cytokine levels were measured from culture supernatant by ELISA.

[12] = system: brain and spinal cord of EAE mice; experiment: Quantitative histopathology: inflammatory foci in brain and spinal cord of EAE mice; assay type: in vivo, mouse (SJL/J)
Protocol: For histopathological analysis, brains and spinal cord of EAE mice were fixed in 10% formaldehyde. […] paraffin sections were stained with LFB and H&E and the number of inflammatory foci within the brain and spinal cord were quantified by a neuropathologist who was blinded to the treatment and clinical parameters of the mice.

[13] = Anti-hirudin antibodies in serum of treated EAE mice; assay type: in vivo, mouse; conditions: EAE mice treated with hirudin
[14] = cells from aPC-treated vs PBS-treated mice
[15] = hirudin 10 mg/kg daily i.v. from peak of disease
[16] = cells from hirudin-treated vs vehicle-treated mice

## CN(Cc1cnc2nc(N)nc(N)c2n1)c1ccc(C(=O)N[C@@H](CCC(=O)O)C(=O)O)cc1 [MTX, Methotrexate]
[1]
  patients having some response: 70%
[1]; patients
  onset of action: 4-6 weeks

## Heparin
[2]
  symptoms: improve symptoms

## aPC-K193E: recombinant human aPC mutant; mainly participates in PAR-1 signalling and lacks anticoagulant activities
[3]
  clinical status (mean clinical score), time of amelioration: significant amelioration early in the disease course (days 20-25)
[4]
  anticoagulant properties (in words): lacks anticoagulant activities
  aPTT (relative activity): 0.03
[5]
  PAR-1 signalling (in words): mainly participates in PAR-1 signalling

## aPC-L8W: recombinant human aPC mutant; retains anticoagulant properties but lacks PAR-1 signalling, defective EPCR interaction at L8
[3]
  clinical status (mean clinical score), time of amelioration: significant amelioration early in the disease course (days 20-25)
[4]
  anticoagulant properties (in words): retains anticoagulant properties
  aPTT (relative activity): 1
[5]
  PAR-1 signalling (in words): lacks PAR-1 signalling

## aPC-WT: recombinant human activated protein C wild type
[3]
  clinical status (mean clinical score), time of amelioration: improvement in the latter part of disease course (days 25-30)

## aPC: recombinant murine activated protein C, provided by Lilly Research Laboratories
[6]
  IκB breakdown: less IκB breakdown
[7]
  IL6 production: less
  IL17 production: less
[8]
  IL6 production: less
  IL17 production: less
[3]; recombinant murine aPC 0.2 mg/kg
  relapse rates: no effect
[3]; recombinant murine aPC 0.2 mg/kg daily i.v. from peak of disease vs PBS
  disease severity (mean clinical score): significant amelioration of disease severity
[9]; [14]
  Th1 and Th17 cytokines: inhibition
[10]; [14]
  immune cell proliferation in splenocytes and lymph node cells: decreased immune cell proliferation
[11]
  IL17 levels: low levels
[12]; aPC-treated vs PBS
  inflammatory foci in the CNS tissue: fewer inflammatory foci

## hirudin: thrombin inhibitor hirudin (Refludan, recombinant lepirudin, Berlex)
[3]; [15]
  disease course: no effect
  relapse rates: no effect
[3]; hirudin 10 mg/kg daily i.v. from peak of disease vs PBS
  disease severity (mean clinical score): dramatic improvement of disease severity
[3]; hirudin treatment
  time up to which amelioration of EAE was observed: ≤ 35 days
[9]; [16]
  IL4 production: no differences
  IL-6 production: suppression
  IL-10 production: no differences
  IL-12 production: no differences
  IL-17 production: suppression
  interferon-γ (IFN-γ) production: no differences
  tumor necrosis factor (TNF) production: suppression
[10]; cells from hirudin-treated vs PBS-treated mice, PLP activated
  immune cell proliferation: decreased immune cell proliferation
[12]; hirudin-treated vs PBS
  inflammatory foci in brains and spinal cords: fewer inflammatory foci
[13]
  anti-hirudin antibodies in serum: presence of anti-hirudin antibodies
